Drawing on patent publication US8148531B2 (Chroma Therapeutics Ltd., priority 2005, dated 2012), this text covers IC50 for 23 molecules.

Structures are written as SMILES. Structures can show the parent of a compound that is named as a salt.

Assay type in all cases: cell-based
One experiment has as its system HCT 116 cell line. The experiment is described as follows: Cell inhibition assay (SRB cell viability), HCT 116. The note with it: Homo sapiens, IC50 range class, 72 h, read-out: Inhibitor Activity vs HCT 116 cell line. As for the experimental part:
(§1) The corresponding cancer cell lines (U937, HCT 116 and HUT) growing in log phase were harvested and seeded at 1000 cells/well (200 ul final volume) into 96-well tissue culture plates. Following 24 h of cell growth cells were treated with compounds (final concentration of 20 uM). Plates were then re-incubated for a further 72 h before a sulphorhodamine B (SRB) cell viability assay was conducted according to Skehan 1990 J Natl Canc Inst 82, 1107-1112.
(§2) Data were expressed as a percentage inhibition of the control, measured in the absence of inhibitor, as follows: — % inhibition=100−((S^i/S^o)×100) where S^i is the signal in the presence of inhibitor and S^o is the signal in the presence of DMSO.
(§3) IC50 values were determined by non-linear regression analysis, after fitting the results of eight data points to the equation for sigmoidal dose response with variable slope (% activity against log concentration of compound), using Graphpad Prism software.

The test system of a further experiment is HUT cell line. The experiment is described as follows: Cell inhibition assay (SRB cell viability), HUT. As to conditions: IC50 range class, 72 h, read-out: Inhibitor Activity vs HUT cell line. As for the experimental part:
as §1, §2, §3

Another experiment concerns U937 cell line. The experiment is described as follows: Cell inhibition assay (SRB cell viability), U937. The note with it: Homo sapiens, U-937, IC50 range class, 72 h, read-out: Inhibitor Activity vs U937 cell line. As for the experimental part:
as §1, §2, §3

For `COc1cc2c(Oc3cccc(F)c3)ccnc2cc1OCC[C@H](N)C(=O)OC1CCCC1` [Example 5, (S)-2-Amino-4-[4-(3-fluoro-phenoxy)-6-methoxy-quinolin-7-yloxy]-butyric acid cyclopentyl ester], the IC50 in the experiment with HCT 116 cell line is above 5 µM; with HUT cell line, 1 to 5 µM; in the experiment with U937 cell line it was 1 to 5 µM.
Regarding `COc1cc2c(Oc3ccccc3)ccnc2cc1OCC[C@H](N)C(=O)OC1CCCC1` [Example 7, (S)-2-Amino-4-(6-methoxy-4-phenoxy-quinolin-7-yloxy)-butyric acid cyclopentyl ester], the values for the IC50 with HCT 116 cell line, in the experiment with HUT cell line and in the experiment with U937 cell line were above 5 µM, 1 to 5 µM and 1 to 5 µM, respectively.
`COc1ccc(Oc2ccnc3cc(OCC[C@H](N)C(=O)OC4CCCC4)c(OC)cc23)cc1` [Example 9, (S)-2-Amino-4-[6-methoxy-4-(4-methoxy-phenoxy)-quinolin-7-yloxy]-butyric acid cyclopentyl ester]: the IC50 in the experiment with HCT 116 cell line is above 5 µM; with HUT cell line, above 5 µM; in the experiment on U937 cell line it was 1 to 5 µM.
For `COc1cc2c(Oc3ccc(-c4ccccc4)cc3)ccnc2cc1OCC[C@H](N)C(=O)OC1CCCC1` [Example 11, (S)-2-Amino-4-[4-(biphenyl-4-yloxy)-6-methoxy-quinolin-7-yloxy]-butyric acid cyclopentyl ester], the IC50 in the experiment with HCT 116 cell line, with HUT cell line and in the experiment on U937 cell line was 1 to 5 µM in each case.
Take `COc1cc2c(Oc3ccc4sc(C)nc4c3)ccnc2cc1OCC[C@H](N)C(=O)OC1CCCC1` [Example 12, (S)-2-Amino-4-[6-methoxy-4-(2-methyl-benzothiazol-5-yloxy)-quinolin-7-yloxy]-butyric acid cyclopentyl ester]: the IC50 with HCT 116 cell line was above 5 µM; in the experiment on HUT cell line, above 5 µM; in the experiment with U937 cell line, 1 to 5 µM.
`COc1cc2c(Oc3ccc4cccnc4c3)ccnc2cc1OCC[C@H](N)C(=O)OC1CCCC1` [Example 14, (S)-2-Amino-4-[6-methoxy-4-(quinolin-7-yloxy)-quinolin-7-yloxy]-butyric acid cyclopentyl ester]: the IC50 is 1 to 5 µM in the experiment with HCT 116 cell line, 1 to 5 µM in the experiment on HUT cell line and below 1 µM in the experiment with U937 cell line.
As to `COc1cc2c(Nc3cnn(CC(=O)Nc4ccccc4)c3)ccnc2cc1OCC[C@H](N)C(=O)OC1CCCC1` [Example 22, (S)-2-Amino-4-[6-methoxy-4-(1-phenylcarbamoylmethyl-1H-pyrazol-4-ylamino)-quinolin-7-yloxy]-butyric acid cyclopentyl ester], the values for the IC50 in the experiment on HCT 116 cell line, in the experiment on HUT cell line and with U937 cell line were above 5 µM, above 5 µM and 1 to 5 µM, respectively.
On to `COc1cc2c(Nc3cnn(CC(=O)Nc4cccc(F)c4)c3)ccnc2cc1OCC[C@H](N)C(=O)OC1CCCC1` [Example 24, (S)-2-Amino-4-(4-{1-[(3-fluoro-phenylcarbamoyl)-methyl]-1H-pyrazol-4-ylamino}-6-methoxy-quinolin-7-yloxy)-butyric acid cyclopentyl ester], for which the IC50 in the experiment on HCT 116 cell line, with HUT cell line and in the experiment on U937 cell line was above 5 µM in each case.
For `COc1cc2c(Nc3cnc(NC(=O)c4ccccc4)nc3)ccnc2cc1OCC[C@H](N)C(=O)OC1CCCC1` [Example 25, (S)-2-Amino-4-[4-(2-benzoylamino-pyrimidin-5-ylamino)-6-methoxy-quinolin-7-yloxy]-butyric acid cyclopentyl ester], the IC50 with HCT 116 cell line, in the experiment with HUT cell line and with U937 cell line was 1 to 5 µM in each case.
In the case of `COc1cc2c(Nc3cnc(NC(=O)c4ccccc4)nc3)ncnc2cc1OCC[C@H](N)C(=O)OC1CCCC1` [Example 31, (S)-2-Amino-4-[4-(2-benzoylamino-pyrimidin-5-ylamino)-6-methoxy-quinazolin-7-yloxy]-butyric acid cyclopentyl ester], the IC50 with HCT 116 cell line, with HUT cell line and with U937 cell line was above 5 µM each time.
`COc1cc2c(Nc3ccc(NC(=O)c4ccccc4)cc3)c(Br)cnc2cc1OCC[C@H](N)C(=O)OC1CCCC1` [Example 33, Dihydrochloride]: the IC50 in the experiment with HCT 116 cell line was above 5 µM; in the experiment on HUT cell line, 1 to 5 µM; with U937 cell line it was 1 to 5 µM.
On to `COc1cc2c(Oc3ccc(NC(=O)c4ccccc4)cc3)ccnc2cc1OCC[C@H](NCC(C)C)C(=O)OC1CCCC1` [Example 37, (S)-4-[4-(4-Benzoylamino-phenoxy)-6-methoxy-quinolin-7-yloxy]-2-isobutylamino-butyric acid cyclopentyl ester], for which the IC50 with HCT 116 cell line is 1 to 5 µM; with HUT cell line, 1 to 5 µM; in the experiment on U937 cell line, below 1 µM.
`CCN[C@@H](CCOc1cc2nccc(Oc3ccc(NC(=O)c4ccccc4)cc3)c2cc1OC)C(=O)OC1CCCC1` [Example 38, (S)-4-[4-(4-Benzoylamino-phenoxy)-6-methoxy-quinolin-7-yloxy]-2-ethylamino-butyric acid cyclopentyl ester]: the IC50 with HCT 116 cell line was 1 to 5 µM; with HUT cell line, 1 to 5 µM; with U937 cell line, below 1 µM.
Take `COc1cc2c(Oc3ccc(NC(=O)c4ccccc4)cc3)ccnc2cc1OCC[C@H](NC1CCCCC1)C(=O)OC1CCCC1` [Example 39, (S)-4-[4-(4-Benzoylamino-phenoxy)-6-methoxy-quinolin-7-yloxy]-2-cyclohexylamino-butyric acid cyclopentyl ester]: the IC50 in the experiment with HCT 116 cell line is above 5 µM; in the experiment on HUT cell line it was above 5 µM; with U937 cell line, 1 to 5 µM.
`COc1cc2c(Oc3ccc(NC(=O)c4ccccc4)cc3)ccnc2cc1OCC[C@H](NCc1ccccc1)C(=O)OC1CCCC1` [Example 40, (S)-4-[4-(4-Benzoylamino-phenoxy)-6-methoxy-quinolin-7-yloxy]-2-benzylamino-butyric acid cyclopentyl ester]: the IC50 was 1 to 5 µM with HCT 116 cell line, 1 to 5 µM in the experiment with HUT cell line and below 1 µM in the experiment with U937 cell line.
As for `CCN(CC)[C@@H](CCOc1cc2nccc(Oc3ccc(NC(=O)c4ccccc4)cc3)c2cc1OC)C(=O)OC1CCCC1` [Example 41, (S)-4-[4-(4-Benzoylamino-phenoxy)-6-methoxy-quinolin-7-yloxy]-2-diethylamino-butyric acid cyclopentyl ester], the IC50 in the experiment on HCT 116 cell line, in the experiment with HUT cell line and in the experiment on U937 cell line was 1 to 5 µM throughout.
For the molecule `COc1cc2c(Oc3ccc(NC(=O)c4ccccc4)cc3)ccnc2cc1OCC[C@H](NC(=O)c1cccs1)C(=O)OC1CCCC1` [Example 44, (S)-4-[4-(4-Benzoylamino-phenoxy)-6-methoxy-quinolin-7-yloxy]-2-[(thiophene-2-carbonyl)-amino]-butyric acid cyclopentyl ester], the IC50 is above 5 µM in the experiment on HCT 116 cell line, 1 to 5 µM in the experiment on HUT cell line and below 1 µM in the experiment on U937 cell line.
`COc1cccc(CC(=O)N[C@@H](CCOc2cc3nccc(Oc4ccc(NC(=O)c5ccccc5)cc4)c3cc2OC)C(=O)OC2CCCC2)c1` [Example 45, (S)-4-[4-(4-Benzoylamino-phenoxy)-6-methoxy-quinolin-7-yloxy]-2-[2-(3-methoxy-phenyl)-acetylamino]-butyric acid cyclopentyl ester]: the IC50 is 1 to 5 µM in the experiment on HCT 116 cell line, below 1 µM in the experiment with HUT cell line and below 1 µM in the experiment on U937 cell line.
On to `COc1cc2c(Oc3ccc(NC(=O)c4ccccc4)cc3)ccnc2cc1OCC[C@H](N)C(=O)OC1CCC(C)C1` (stereo partly drawn) [Example 46, (S)-2-Amino-4-[4-(4-benzoylamino-phenoxy)-6-methoxy-quinolin-7-yloxy]-butyric acid 3-methyl-cyclopentyl ester], for which the IC50 with HCT 116 cell line, with HUT cell line and with U937 cell line was below 1 µM each time.
In the case of `COc1cc2c(Oc3ccc(NC(=O)c4ccccc4)cc3)ccnc2cc1OCC[C@H](N)C(=O)OC12CCC(CC1)C2` [Example 47, (S)-2-Amino-4-[4-(4-benzoylamino-phenoxy)-6-methoxy-quinolin-7-yloxy]-butyric acid bicyclo[2.2.1]hept-1-yl ester], the IC50 in the experiment with HCT 116 cell line, in the experiment with HUT cell line and with U937 cell line was below 1 µM in each case.
With `COc1cc2c(Oc3ccc(NC(=O)c4ccccc4)cc3)ccnc2cc1OCC[C@H](N)C(=O)OC1CCCCC1` [Example 48, (S)-2-Amino-4-[4-(4-benzoylamino-phenoxy)-6-methoxyquinolin-7-yloxy]-butyric acid cyclohexyl ester], the IC50 with HCT 116 cell line, in the experiment with HUT cell line and with U937 cell line was below 1 µM in each case.
For `COc1cc2c(Oc3ccc(NC(=O)c4ccccc4)cc3)ccnc2cc1OCC[C@H](N)C(=O)OC1CCCC1C` (stereo partly drawn) [Example 49, (S)-2-Amino-4-[4-(4-benzoylamino-phenoxy)-6-methoxy-quinolin-7-yloxy]-butyric acid 2-methyl-cyclopentyl ester], the IC50 in the experiment with HCT 116 cell line, with HUT cell line and in the experiment with U937 cell line was below 1 µM each time.
For `CCOC(=O)[C@@H](N)CCOc1cc2nccc(Oc3ccc(NC(=O)c4ccccc4)cc3)c2cc1OC` [Example 51, (S)-2-Amino-4-[4-(4-benzoylamino-phenoxy)-6-methoxy-quinolin-7-yloxy]-butyric acid Ethyl ester], the IC50 with HCT 116 cell line, in the experiment on HUT cell line and with U937 cell line was below 1 µM in each case.
